# According to patent publication US20220313656A1, “NEW CLASS OF ANTIBIOTICS HAVING LOW MIC-VALUES TOWARDS DIFFERENT STRAINS OF BACTERIA” (priority 2019, published 2022):
# Where two headings read alike, the source gives them in different places.
# Experiments:
# [1] = test system: E. coli APEC O2; assay: MIC, serial dilution method (CLSI); type: cell-based, Escherichia coli
# Method: (§1) These inoculums were each in diluted 1:100 in Müller Hinton (MH) broth (Sigma, Copenhagen, Denmark). From the diluted inoculums 100 μl was transferred to each well in a 96-well plate and mixed with the compound to be MIC determined. The plate was incubated for 24 hours at 37° C. (without shaking). The MIC value was determined as the lowest concentration in which no bacterial growth could be visually detected. All MIC determinations were done in duplicates. […] Since all derivatives are new, no control strains (with reference MIC values) were available.
# [2] = test system: S. aureus USA300; assay: MIC, serial dilution method (CLSI); type: cell-based, Staphylococcus aureus
# Method: as §1
# [3] = test system: S. aureus CC398; assay: MIC, serial dilution method (CLSI); type: cell-based, Staphylococcus aureus
# Method: as §1
# [4] = test system: Streptococcus equi; assay: MIC, serial dilution method (CLSI); type: cell-based
# Method: as §1
# [5] = test system: Listeria monocytogenes; assay: MIC, serial dilution method (CLSI); type: cell-based
# Method: as §1
# [6] = test system: Salmonella enteritidis; assay: MIC, serial dilution method (CLSI); type: cell-based
# Method: as §1
# [7] = test system: Bacillus cereus; assay: MIC, serial dilution method (CLSI); type: cell-based
# Method: as §1
# [8] = test system: Staphylococus pseudintermedius; assay: MIC, serial dilution method (CLSI); type: cell-based, Staphylococcus pseudintermedius
# Method: as §1
# [9] = test system: E. faecalis; assay: MIC, serial dilution method (CLSI); type: cell-based, Enterococcus faecalis
# Method: as §1
# [10] = test system: E. faecium; assay: MIC, serial dilution method (CLSI); type: cell-based, Enterococcus faecium
# Method: as §1
# [11] = test system: IPEC-J2 MDR1 cells; assay: Apical to basolateral transport across IPEC-J2 MDR1 cell monolayers; type: in vitro ADME
# Method: To assess the permeability of the compounds, the apical to basolateral flux/permeability of different experimental compounds across monolayers of IPEC-J2 MDR1 cells seeded and cultured on Transwell supports was investigated.
# The compounds were dissolved in ultra pure water (MilliQ) to a concentration of 1 mM and further diluted in HBSS supplemented with 0.05% BSA and 10 mM HEPES, pH 7.4 to a final concentration of 10 μM.
# For transport experiments, IPEC-J2 cells were seeded onto to permeable supports (T12, Corning cci-3401) and cultured for 15-17 days. Culturemedium was changed every other day in both the apical and basolateral chamber. On the day of transport, the cells were equilibrated to ambient temperatures and the transepithelial electrical resistance (TEER) was measured across the cell monolayers. Subsequently, the cell layers were washed twice with HBSS and the TEER was measured again. The transport experiment was started by replacing the HBSS in the apical chamber with HBSS solutions of the four experimental compounds. Over a period of two hours samples of 100 μL where taken from the basolateral chamber at t=15, 30, 45, 60, 90 and 120 minutes. All samples were stored at −20° C. until analysis by means of HPLC-MS. All four compounds were tested in triplicate. After the transport study was stopped, the cell layers were washed twice with HBSS and the TEER was measured.
# [12] = test system: Staphylococcus aureus MRSA 43484; assay: Murine superficial MRSA skin infection model, topical treatment; type: in vivo; conditions: 2%, topical twice daily for 3 days, day 4, Balb/C mice
# Method: This experiment is conducted to assess the effect of topical treatment of the compounds against MRSA. Compound S43 was evaluated for efficacy against Staphylococcus aureus MRSA 43484 in an murine skin infection model.
# Treatment was performed twice daily for 3 days and sampling of skin biopsies was performed the day after last treatment. Treatment with Fucidic acid was included as a positive control and treatment with vehicle was included as a negative control.
# 48 Balb/C female mice—18-22 g—Taconic, Denmark, Staphylococcus aureus MRSA43484, Test compound A at 1 and 2% formulations, Test compound B at 2% formulation, Fucidin, 0.9% saline (sterile, SSI), 0.9% saline/Triton-x (sterile, SSI), Sterile water (SSI), 5% Horse Blood Agar plates (SSI), MRSA Brilliance agar plates, Nurofen® Junior (20 mg/ml, Novartis), Zoletil mix/Torbugesic (SSI/QC-BIO), Dermal curette—Miltex 335710.
# Approximately 1 hour before inoculation, mice were treated orally with 45 μl nurofen (20 mg ibuprofen/ml corresponding to approximately […]) as pain relief. The mice were anaesthetized with 0.15 ml s.c. of Zoletil mix. The fur was removed from a 2×3-cm area on the back of each mouse by use of an electric shaver. Next, a razor was used to remove all the hair and hereafter the outer most layer of the skin was scraped off with a dermal curette to obtain a 1 cm^2 superficial skin lesion. 10 μl inoculum containing approximately 10^7 CFU was spread on the lesion. After the applied inoculum had dried, the mouse was placed in the cage and kept in a warming cabinet until fully awake.
# Topical treatment of was initiated the day after inoculation, Day 1. Mice were treated twice daily (9 a.m and 3 p.m.) for three days. A volume of 50 μl was spread on the inoculated skin area.
# Colony counts in the skin lesions were determined on day 1 (start of treatment) and day 4 (the day after completed treatment). The mice were sacrificed day 1 and 4 according to Table 1. The affected skin area was removed by a pair of scissors and tweezers, and collected in a tube for Dispomixer with 1 ml saline. The skin sample was homogenized in a Dispomixer. Each sample was serial diluted in saline/Triton-x and 20-μl spots were applied on MRSA Brillince agar plates. All agar plates were incubated 20-48 hrs at 35° C.
# [13] = test system: Staphylococcus epidermidis; assay: MIC and MBC determination; type: cell-based; conditions: Multiresistant clinical isolate
# Method: (§2) MBC-value defines the antibiotic activities by the lowest concentration of the compound needed to kill at least 99.9% of the bacteria, also known as minimum bactericidal concentration (MBC) value.
# (§3) The MIC for each compound for each bacteria strain was determined by the serial dilution method following the CLSI guidelines (CLSI Clinical and Laboratory Standards Institute: Performance Standards for Antimicrobial Susceptibility Testing: […] M100-S25. Wayne, Pa., USA; 2015.) All compounds were diluted in autoclaved H2O and stored at 4° C. […] Bacterial inoculums were prepared by inoculating 9 ml of H2O with bacterial colonies from agar plate (Oxoid, Roskilde Denmark) supplemented with bovine blood to a final yield a final density of 10^8 colony forming unit (CFU)/mL using a Sensititre™ Nephelometer (Thermo Scientific, Roskilde, Denmark). These inoculums were each in diluted 1:100 in Müller Hinton (MH) broth (Sigma, Copenhagen, Denmark). From the diluted inoculums 100 μl was transferred to each well in a 96-well plate and mixed with the compound to be MIC determined. The plate was incubated for 24 hours at 37° C. (without shaking). The MIC value was determined as the lowest concentration in which no bacterial growth could be visually detected. All MIC determinations were done in duplicates. […] Since all derivatives are new, no control strains (with reference MIC values) were available.
# [14] = test system: Cutibacterium acnes; assay: MIC and MBC determination; type: cell-based; conditions: Multiresistant clinical isolate
# Method: as §2, §3
# [15] = Escherichia coli, APECO2, 24 h, read-out: MIC
# [16] = Staphylococcus aureus, USA300, 24 h, read-out: MIC
# [17] = Staphylococcus aureus, MRSA, 24 h, read-out: MIC
# [18] = Salmonella enterica, ENTERITIDIS, 24 h, read-out: MIC
# [19] = Staphylococcus pseudintermedius, 24 h, read-out: MIC
# [20] = Enterococcus faecalis, 24 h, read-out: MIC
# [21] = Enterococcus faecium, 24 h, read-out: MIC
# [22] = E. coli APEC O2, MH broth, 24 hours at 37° C., set to 256 if growth at […]
# [23] = S. aureus USA300, MH broth, 24 hours at 37° C., set to 256 if growth at […]
# [24] = S. aureus CC398 (MRSA strain), MH broth, 24 hours at 37° C., set to 256 if growth at […]
# [25] = MH broth, 24 hours at 37° C., set to 256 if growth at […]
# [26] = Salmonella enteritidis, MH broth, 24 hours at 37° C., set to 256 if growth at […]
# [27] = Staphylococus pseudintermedius, MH broth, 24 hours at 37° C., set to 256 if growth at […]
# [28] = E. faecalis, MH broth, 24 hours at 37° C., set to 256 if growth at […]
# [29] = E. faecium, MH broth, 24 hours at 37° C., set to 256 if growth at […]
compound,measurement,setting,value
"CSc1ccc2c(c1)N(CCC1CCCC[N+]1(C)CCC(C)C)c1ccccc1S2.[Br-] (centres unmarked) [Compound S27, 1-isopentyl-1-methyl-2-(2-(2-(methylthio)-10H-phenothiazin-10-yl)ethyl)piperidin-1-ium bromide]",MIC,[1]; [15],128 µg/mL
same,MIC,[2]; [16],2 µg/mL
same,MIC,[3]; [17],2 µg/mL
same,MIC,"[4]; 24 h, read-out: MIC",2 µg/mL
same,MIC,"[5]; 24 h, read-out: MIC",2 µg/mL
same,MIC,[6]; [18],128 µg/mL
same,MIC,"[7]; 24 h, read-out: MIC",4 µg/mL
same,MIC,[8]; [19],2 µg/mL
same,MIC,[9]; [20],4 µg/mL
same,MIC,[10]; [21],4 µg/mL
same,permeability across IPEC-J2 MDR1 cell monolayers,[11],low
"CC(=O)O[C@H]1C[C@@]2(C)[C@@H](C[C@@H](O)[C@H]3[C@@]4(C)CC[C@@H](O)[C@@H](C)[C@@H]4CC[C@@]32C)/C1=C(\CCC=C(C)C)C(=O)O [fucidic acid, reference compound]",reduction of the CFU levels compared to the vehicle control,[12],1.5 logo
"CCCCCCCCCCCC[N+](C)(C)C(C)CN1c2ccccc2Sc2ccccc21.[Br-] (centres unmarked) [Compound S18, N-(1-(10H-phenothiazin-10-yl)propan-2-yl)-N,N-dimethyldodecan-1-aminium bromide]",MIC,[1]; [15],64 µg/mL
same,MIC,[2]; [16],0.5 µg/mL
same,MIC,[3]; [17],0.25 µg/mL
same,MIC,"[4]; 24 h, read-out: MIC",1 µg/mL
same,MIC,"[5]; 24 h, read-out: MIC",0.25 µg/mL
same,MIC,[6]; [18],64 µg/mL
same,MIC,"[7]; 24 h, read-out: MIC",0.25 µg/mL
same,MIC,[8]; [19],0.25 µg/mL
same,MIC,[9]; [20],0.5 µg/mL
same,MBC,[13],0.25 µg/mL
same,MIC,[13],0.25 µg/mL
same,MBC,[14],0.5 µg/mL
same,MIC,[14],0.5 µg/mL
same,MIC,[10]; [21],0.25 µg/mL
"CC[N+]1(C)CCCCC1CCN1c2ccccc2Sc2ccc(SC)cc21.[Br-] (centres unmarked) [Compound S25, 1-ethyl-1-methyl-2-(2-(2-(methylthio)-10H-phenothiazin-10-yl)ethyl)piperidin-1-ium bromide]",MIC,[1]; [15],256 µg/mL
same,MIC,[2]; [16],2 µg/mL
same,MIC,[3]; [17],4 µg/mL
same,MIC,"[4]; 24 h, read-out: MIC",2 µg/mL
same,MIC,"[5]; 24 h, read-out: MIC",2 µg/mL
same,MIC,[6]; [18],256 µg/mL
same,MIC,"[7]; 24 h, read-out: MIC",2 µg/mL
same,MIC,[8]; [19],2 µg/mL
same,MIC,[9]; [20],8 µg/mL
same,MIC,[10]; [21],8 µg/mL
same,permeability across IPEC-J2 MDR1 cell monolayers,[11],low
CSc1ccc2c(c1)N(CCC1CCCC[N+]1(C)Cc1ccccc1)c1ccccc1S2 (centres unmarked) [Thioridazine Benzyl],MIC,[1]; [22],128 µg/mL
same,MIC,[2]; [23],2 µg/mL
same,MIC,[3]; [24],2 µg/mL
same,MIC,[4]; [25],2 µg/mL
same,MIC,[5]; [25],4 µg/mL
same,MIC,[6]; [26],64 µg/mL
same,MIC,[7]; [25],2 µg/mL
same,MIC,[8]; [27],2 µg/mL
same,MIC,[9]; [28],8 µg/mL
same,MIC,[10]; [29],8 µg/mL
"CC(C)CC[N+](C)(C)C(C)CN1c2ccccc2Sc2ccccc21.[Br-] (centres unmarked) [Compound S16, N-(1-(10H-phenothiazin-10-yl)propan-2-yl)-N,N,3-trimethylbutan-1-aminium bromide]",MIC,[1]; [15],64 µg/mL
same,MIC,[2]; [16],16 µg/mL
same,MIC,[3]; [17],16 µg/mL
same,MIC,"[4]; 24 h, read-out: MIC",8 µg/mL
same,MIC,"[5]; 24 h, read-out: MIC",32 µg/mL
same,MIC,[6]; [18],128 µg/mL
same,MIC,"[7]; 24 h, read-out: MIC",16 µg/mL
same,MIC,[8]; [19],8 µg/mL
same,MIC,[9]; [20],64 µg/mL
same,MIC,[10]; [21],64 µg/mL
CCOC(=O)CC[N+](C)(C)CCCN1c2ccccc2Sc2ccc(Cl)cc21 [Chlorpromazine 3-Ethoxy-3-oxo-1-propyl],MIC,[1]; [22],128 µg/mL
same,MIC,[2]; [23],64 µg/mL
same,MIC,[3]; [24],64 µg/mL
same,MIC,[4]; [25],32 µg/mL
same,MIC,[5]; [25],64 µg/mL
same,MIC,[6]; [26],64 µg/mL
same,MIC,[7]; [25],128 µg/mL
same,MIC,[8]; [27],32 µg/mL
same,MIC,[9]; [28],64 µg/mL
same,MIC,[10]; [29],32 µg/mL
"CCCCCCCCCCCC[N+]1(C)CCCCC1CCN1c2ccccc2Sc2ccc(SC)cc21.[Br-] (centres unmarked) [Compound S29, 1-dodecyl-1-methyl-2-(2-(2-(methylthio)-10H-phenothiazin-10-yl)ethyl)piperidin-1-ium bromide]",MIC,[1]; [15],64 µg/mL
same,MIC,[2]; [16],4 µg/mL
same,MIC,[3]; [17],2 µg/mL
same,MIC,"[4]; 24 h, read-out: MIC",2 µg/mL
same,MIC,"[5]; 24 h, read-out: MIC",2 µg/mL
same,MIC,[6]; [18],64 µg/mL
same,MIC,"[7]; 24 h, read-out: MIC",2 µg/mL
same,MIC,[8]; [19],2 µg/mL
same,MIC,[9]; [20],4 µg/mL
same,MIC,[10]; [21],2 µg/mL
